Entries after “also recorded” stand apart in the source; their conditions may differ.
Columns and labels:
influenza A/PR/8/34 = experiment: microbe, parasite or virus in culture; type: cell-based, avian H1N1 influenza A virus (A/PuertoRico/8/34); conditions: for IC50: Influenza A virus, PR/8, MDCK, read-out: IC50, viral plaque inhibition
in vitro = conditions: dog
[1] = target: T1, PAN endonuclease (influenza virus PA N-terminal domain) (Influenza A virus, UniProt Q5EP34); type: binding
immunoglobulin G (IgG) = experiment: Direct binding FP specificity control with IgG; conditions: IgG 2-fold serial dilutions from 100 μM, 4 at 60 nM
[2] = target: T1, PAN endonuclease (influenza virus PA N-terminal domain); type: binding; remark: listed apart in the source

| SMILES | IC50 (influenza A/PR/8/34) [µM] | FP competitive binding, result in words [1] | further results |
| --- | --- | --- | --- |
| CC(NC(=O)c1nc(-c2cnccn2)[nH]c(=O)c1O)c1ccccc1 (centres unmarked) [Compound 42] | 14.28 ± 0.07 | – | CC50 (in vitro): > 60 µM |
| CC(C)(C)OC(=O)/C(O)=C/C(=O)c1ccccc1 [Compound 17] | – | inactivity | – |
| O=C(O)/C=C/C(=O)c1ccccc1 [Compound 18] | – | inactive | – |
| O=C(O)C(=O)C1=C(O)c2ccccc2OC1 [Compound 14] | – | inactive | – |
| CCC(CC)O[C@@H]1C=C(C(=O)O)C[C@H](N)[C@H]1NC(C)=O [oseltamivir carboxylate, reference compound] | – | – | inhibition of viral plaque formation (influenza A/PR/8/34): 100% |
| COC(=O)/C(O)=C/C(=O)c1ccccc1 [Compound 16, reference compound] | > 100 | inactivity | Inhibition of viral plaque formation, result in words (influenza A/PR/8/34): inactive |
| O=C(NCCc1ccccc1)c1nc(-c2cnccn2)[nH]c(=O)c1O [Compound 43] | > 100 | – | Inhibition of viral plaque formation, result in words (influenza A/PR/8/34): inactive |
| O=C(O)/C(O)=C/C(=O)C1(Cc2ccc(Cl)cc2)CCN(Cc2ccccc2)CC1 [Compound 2, reference compound] | 3.13 ± 0.08 | – | inhibition (displacement of 4 from PAN) ([1]; 250 µM): 100% |
| O=C(O)/C(O)=C/C(=O)c1cccnc1 [Compound 13] | – | inactive | – |
| O=C(O)/C(O)=C/C(=O)C1(Cc2ccc(Cl)cc2)CCN(C(=O)c2ccc(-c3c4ccc(=O)cc-4oc4cc(O)ccc34)c(C(=O)O)c2)CC1 [Compound 4] | – | – | Non-specific binding to IgG (immunoglobulin G (IgG)): not observed; dynamic range [2]: 124.3 ± 0.9 mP |
| C[C@H](NC(=O)c1nc(-c2cnccn2)[nH]c(=O)c1O)c1ccccc1 [Compound 44] | 18.61 ± 0.09 | – | CC50 (in vitro): > 60 µM |
| C[C@@H](NC(=O)c1nc(-c2cnccn2)[nH]c(=O)c1O)c1ccccc1 [Compound 45] | 12.68 ± 0.08 | – | CC50 (in vitro): > 60 µM |
| O=C(O)c1nc(-c2cnccn2)nc(O)c1O [Compound 31] | > 50 | – | – |
| O=C(O)CCC(=O)c1ccccc1 [Compound 19] | – | no inhibition; also recorded: inactive | – |
| COc1ccc2c(c1)CC(C(=O)C(=O)O)=C2O [Compound 15] | – | inactive | – |
